Experimental data taken from paper PMC11542830, “3-nitropyridine analogues as novel microtubule-targeting agents” (PLOS ONE, 2024).
Like-named read-outs stand apart in the source and are kept apart here.

Columns and labels:
[1] = test system: tubulin; assay: Fluorescence-based tubulin polymerization assay; format: biochemical; conditions: purified tubulin, fluorescent reporter, vs DMSO control
Method: Tubulin polymerization in vitro was analyzed using the fluorescence-based tubulin polymerization assay (Cytoskeleton, Inc.), according to the manufacturer’s guidelines. Fluorescence was read on a SaFire II microplate reader (Tecan).

[2] = test system: primary cortical neurons; assay: Neurite outgrowth assay; format: cell-based, Sprague-Dawley rat; conditions: Primary cortical neuron, rat primary cortical neurons, 72 hours
Method: Neurite outgrowth assay was performed by Fluofarma (Pessac, France). Primary cortical neurons were harvested from E19 Sprague-Dawley (Janvier Labs) rat embryos, dissociated and plated at 10,000 per well in a tissue-culture treated 96 well plate, in neuronal medium (SM2 matrix independent growth medium, Stem Cell Technologies). Neurons were followed by phase contrast imaging with 1 image acquired every 4 hours, using an Incucyte Zoom (Essen BioScience) with a 20x objective. Four fields per well were acquired. After 24 hours, cells were treated with test compounds and neurite outgrowth was followed for 72 hours post-treatment. All measures were performed in triplicate in one experiment.
Neurite outgrowth kinetics were analyzed from each phase contrast image using the Neurotrack module of the Incucyte Zoom platform. Neurite length and branch points were obtained for each time point. The area under the curve (AUC) was calculated in each experimental condition (GraphPad Prism 6, GraphPad Software).

[3] = read-out: IC50 for branch point formation
[4] = read-out: IC50 for neurite length

Structure (SMILES)	effect on tubulin polymerization in vitro [1]	IC50 [2, 3]	IC50 [2, 4]
CC[C@]1(O)C[C@@H]2CN(CCc3c([nH]c4ccccc34)[C@@](C(=O)OC)(c3cc4c(cc3OC)N(C)[C@H]3[C@@](O)(C(=O)OC)[C@H](OC(C)=O)[C@]5(CC)C=CCN6CC[C@]43[C@@H]65)C2)C1 [vinblastine, reference compound]	marked decrease in final polymer formation	0.7 nM	0.9 nM
CC[C@]1(O)C[C@H]2CN(CCc3c([nH]c4ccccc34)[C@@](C(=O)OC)(c3cc4c(cc3OC)N(C=O)[C@H]3[C@@](O)(C(=O)OC)[C@H](OC(C)=O)[C@]5(CC)C=CCN6CC[C@]43[C@@H]65)C2)C1 [vincristine, reference compound]	–	0.2 nM	0.2 nM
